Results reported in patent publication US5587475A, “Derivatized virginiamycin M1” (University of Notre Dame, priority 1995, dated 1996).

What was measured:
Micrococcus luteus = experiment: in vivo activity, M.I.C. on M. luteus (VM1 derivatives alone, without VS1); assay type: cell-based; design: key: (+) indicates multiplication of bacteria; conditions: M. luteus in LBroth, 18 h at 37° C. with shaking
Method: The synthesized derivatives of the present invention have been tested for antibacterial activity (in solid and liquid medium), ribosome binding affinity and synergistic activity with virginiamycin S. The tests for biological activity were carried out both in vivo and in vitro. The in vivo tests were carried out using Micrococcus luteus as the test organism with the VM1 derivatives alone (without VS1). Minimum inhibitory concentrations (MIC values) were determined on agar broth plates by standard microbiological procedures, with a range of concentrations of the VM derivatives applied to the plates. The in vitro tests of the VM derivatives were performed together with VS1, and took advantage of the unique fluorescence (F) inherent in VS1. The results are summarized in the following tables, wherein the activities are compared to virginiamycin (VM1). | M. luteus in LBroth, 18 h at 37° C. with shaking. | M. luteus in LBroth, 18 h at 37° C. with shaking.

ribosomes = experiment: in vitro activity: binding to free ribosomes, VS1 fluorescence with erythromycin displacement; design: key to kobs (symbol): (*) too small to be measured. t/2 is very large; conditions: together with VS1, fluorescence
Method: The in vivo tests were carried out using Micrococcus luteus as the test organism with the VM1 derivatives alone (without VS1). Minimum inhibitory concentrations (MIC values) were determined on agar broth plates by standard microbiological procedures, with a range of concentrations of the VM derivatives applied to the plates. The in vitro tests of the VM derivatives were performed together with VS1, and took advantage of the unique fluorescence (F) inherent in VS1. […] Using spectrofluorometry, an increase in fluorescence can be measured when ribosomes are added to a VS1 solution. Erythromycin is known to bind at the same position on the ribosome (50-S subunit) as VS1, and when it is added to the VS1 /ribosomal mixture, a decrease in fluorescence is seen. If VM1 is added to the VS1 /ribosomal/erythromycin mixture, an increase in fluorescence can be measured. Presumably, a conformational change of the ribosomes occurs upon binding of VM1, which allows VS1 to bind preferentially and releases erythromycin from the ribosomes. The VM1 derivatives would also display this type of behavior if they bind to the ribosomes.

[1] = in vitro Activity of VM1-Carboxylic Acid Derivatives
[2] = in vitro Activity of VM1-Ester Derivatives

SMILES	kobs (ribosomes; [1])	t/2 (ribosomes; [1]) [s]	in vivo Acitivity of VM1-Carboxylic Derivatives, M.I.C. on M. luteus (multiplication of bacteria) (Micrococcus luteus; Concentration 0.0625 μg/mL)	in vivo Acitivity of VM1-Carboxylic Derivatives, M.I.C. on M. luteus (multiplication of bacteria) (Micrococcus luteus; Concentration 0.125 μg/mL)	in vivo Acitivity of VM1-Carboxylic Derivatives, M.I.C. on M. luteus (multiplication of bacteria) (Micrococcus luteus; Concentration 0.25 μg/mL)	in vivo Acitivity of VM1-Carboxylic Derivatives, M.I.C. on M. luteus (multiplication of bacteria) (Micrococcus luteus; Concentration 0.5 μg/mL)	in vivo Acitivity of VM1-Carboxylic Derivatives, M.I.C. on M. luteus (multiplication of bacteria) (Micrococcus luteus; Concentration 1 μg/mL)	in vivo Acitivity of VM1-Carboxylic Derivatives, M.I.C. on M. luteus (multiplication of bacteria) (Micrococcus luteus; Concentration 2 μg/mL)	in vivo Acitivity of VM1-Carboxylic Derivatives, M.I.C. on M. luteus (multiplication of bacteria) (Micrococcus luteus; Concentration 4 μg/mL)	in vivo Acitivity of VM1-Carboxylic Derivatives, M.I.C. on M. luteus (multiplication of bacteria) (Micrococcus luteus; Concentration 8 μg/mL)	in vivo Acitivity of VM1-Carboxylic Derivatives, M.I.C. on M. luteus (multiplication of bacteria) (Micrococcus luteus; Concentration 16 μg/mL)	in vivo Acitivity of VM1-Carboxylic Derivatives, M.I.C. on M. luteus (multiplication of bacteria) (Micrococcus luteus; Concentration 32 μg/mL)	in vivo Activity of VM1-Ester Derivatives, M.I.C. on M. luteus (multiplication of bacteria) (Micrococcus luteus; Concentration 0.0625 μg/mL)	in vivo Activity of VM1-Ester Derivatives, M.I.C. on M. luteus (multiplication of bacteria) (Micrococcus luteus; Concentration 0.125 μg/mL)	in vivo Activity of VM1-Ester Derivatives, M.I.C. on M. luteus (multiplication of bacteria) (Micrococcus luteus; Concentration 0.25 μg/mL)	also measured
CC1=C\[C@@H](O)CC(=O)Cc2nc(co2)C(=O)N2CC[C@@H](SCC(=O)O)[C@@H]2C(=O)O[C@H](C(C)C)[C@H](C)/C=C/C(=O)NC\C=C\1 [Carboxylic a R,S]	.00047 s⁻¹	1487	+	+	+	+	+	+	+	+	+	–	–	–	–	–
CC1=C\[C@@H](O)CC(=O)Cc2nc(co2)C(=O)N2CC[C@H](SCC(=O)O)[C@H]2C(=O)O[C@H](C(C)C)[C@H](C)/C=C/C(=O)NC\C=C\1 [Carboxylic a S,R]	–	–	+	+	+	+	+	+	+	+	+	+	–	–	–	in vivo Acitivity of VM1-Carboxylic Derivatives, M.I.C. on M. luteus (multiplication of bacteria) (Micrococcus luteus; Concentration 128 μg/mL): +; kobs (symbol) (ribosomes; [1]): *
CC1=C\[C@@H](O)CC(=O)Cc2nc(co2)C(=O)N2CC[C@H](SCCC(=O)O)[C@H]2C(=O)O[C@H](C(C)C)[C@H](C)/C=C/C(=O)NC\C=C\1 [Carboxylic b S,R]	–	–	+	+	+	+	+	+	+	+	+	+	–	–	–	in vivo Acitivity of VM1-Carboxylic Derivatives, M.I.C. on M. luteus (multiplication of bacteria) (Micrococcus luteus; Concentration 128 μg/mL): +; kobs (symbol) (ribosomes; [1]): *
CC1=C\[C@@H](O)CC(=O)Cc2nc(co2)C(=O)N2CC[C@@H](SCCCCC(=O)O)[C@@H]2C(=O)O[C@H](C(C)C)[C@H](C)/C=C/C(=O)NC\C=C\1 [Carboxylic c R,S]	0.019 s⁻¹	38.7	+	+	+	–	–	–	–	–	–	–	–	–	–	–
CC1=C\[C@@H](O)CC(=O)Cc2nc(co2)C(=O)N2CC[C@@H](SCC(=O)OCC(Cl)(Cl)Cl)[C@@H]2C(=O)O[C@H](C(C)C)[C@H](C)/C=C/C(=O)NC\C=C\1 [Ester a R,S]	–	–	–	–	–	–	–	–	–	–	–	–	+	+	+	kobs (ribosomes; [2]): 0.019 s⁻¹; t/2 (ribosomes; [2]): 35.6 s
CC1=C\[C@@H](O)CC(=O)Cc2nc(co2)C(=O)N2CC[C@H](SCC(=O)OCC(Cl)(Cl)Cl)[C@H]2C(=O)O[C@H](C(C)C)[C@H](C)/C=C/C(=O)NC\C=C\1 [Ester a S,R]	–	–	–	–	–	–	–	–	–	–	–	–	+	+	+	in vivo Activity of VM1-Ester Derivatives, M.I.C. on M. luteus (multiplication of bacteria) (Micrococcus luteus; Concentration 0.5 μg/mL): +; in vivo Activity of VM1-Ester Derivatives, M.I.C. on M. luteus (multiplication of bacteria) (Micrococcus luteus; Concentration 1 μg/mL): +; in vivo Activity of VM1-Ester Derivatives, M.I.C. on M. luteus (multiplication of bacteria) (Micrococcus luteus; Concentration 2 μg/mL): +; in vivo Activity of VM1-Ester Derivatives, M.I.C. on M. luteus (multiplication of bacteria) (Micrococcus luteus; Concentration 4 μg/mL): +; in vivo Activity of VM1-Ester Derivatives, M.I.C. on M. luteus (multiplication of bacteria) (Micrococcus luteus; Concentration 8 μg/mL): +; in vivo Activity of VM1-Ester Derivatives, M.I.C. on M. luteus (multiplication of bacteria) (Micrococcus luteus; Concentration 16 μg/mL): +; kobs (symbol) (ribosomes; [2]): *
CC1=C\[C@@H](O)CC(=O)Cc2nc(co2)C(=O)N2CC[C@@H](SCCC(=O)OCC(Cl)(Cl)Cl)[C@@H]2C(=O)O[C@H](C(C)C)[C@H](C)/C=C/C(=O)NC\C=C\1 [Ester b R,S]	–	–	–	–	–	–	–	–	–	–	–	–	+	+	+	in vivo Activity of VM1-Ester Derivatives, M.I.C. on M. luteus (multiplication of bacteria) (Micrococcus luteus; Concentration 0.5 μg/mL): +; kobs (ribosomes; [2]): 0.021 s⁻¹; t/2 (ribosomes; [2]): 32.7 s

The next lines start with results.

kobs (ribosomes; [1])	t/2 (ribosomes; [1]) [s]	SMILES	in vivo Acitivity of VM1-Carboxylic Derivatives, M.I.C. on M. luteus (multiplication of bacteria) (Micrococcus luteus; Concentration 0.0625 μg/mL)	in vivo Acitivity of VM1-Carboxylic Derivatives, M.I.C. on M. luteus (multiplication of bacteria) (Micrococcus luteus; Concentration 0.125 μg/mL)	in vivo Acitivity of VM1-Carboxylic Derivatives, M.I.C. on M. luteus (multiplication of bacteria) (Micrococcus luteus; Concentration 0.25 μg/mL)	in vivo Acitivity of VM1-Carboxylic Derivatives, M.I.C. on M. luteus (multiplication of bacteria) (Micrococcus luteus; Concentration 0.5 μg/mL)	in vivo Acitivity of VM1-Carboxylic Derivatives, M.I.C. on M. luteus (multiplication of bacteria) (Micrococcus luteus; Concentration 1 μg/mL)	in vivo Acitivity of VM1-Carboxylic Derivatives, M.I.C. on M. luteus (multiplication of bacteria) (Micrococcus luteus; Concentration 2 μg/mL)	in vivo Acitivity of VM1-Carboxylic Derivatives, M.I.C. on M. luteus (multiplication of bacteria) (Micrococcus luteus; Concentration 4 μg/mL)	in vivo Acitivity of VM1-Carboxylic Derivatives, M.I.C. on M. luteus (multiplication of bacteria) (Micrococcus luteus; Concentration 8 μg/mL)	in vivo Acitivity of VM1-Carboxylic Derivatives, M.I.C. on M. luteus (multiplication of bacteria) (Micrococcus luteus; Concentration 16 μg/mL)	in vivo Acitivity of VM1-Carboxylic Derivatives, M.I.C. on M. luteus (multiplication of bacteria) (Micrococcus luteus; Concentration 32 μg/mL)	in vivo Activity of VM1-Ester Derivatives, M.I.C. on M. luteus (multiplication of bacteria) (Micrococcus luteus; Concentration 0.0625 μg/mL)	in vivo Activity of VM1-Ester Derivatives, M.I.C. on M. luteus (multiplication of bacteria) (Micrococcus luteus; Concentration 0.125 μg/mL)	in vivo Activity of VM1-Ester Derivatives, M.I.C. on M. luteus (multiplication of bacteria) (Micrococcus luteus; Concentration 0.25 μg/mL)	also measured
0.003 s⁻¹	229	CC1=C\[C@@H](O)CC(=O)Cc2nc(co2)C(=O)N2CC[C@@H](SCCC(=O)O)[C@@H]2C(=O)O[C@H](C(C)C)[C@H](C)/C=C/C(=O)NC\C=C\1 [Carboxylic b R,S]	+	+	+	+	+	+	+	+	+	+	–	–	–	–
0.015 s⁻¹	46	CC1=C\[C@@H](O)CC(=O)Cc2nc(co2)C(=O)N2CC[C@H](SCCCCC(=O)O)[C@H]2C(=O)O[C@H](C(C)C)[C@H](C)/C=C/C(=O)NC\C=C\1 [Carboxylic c S,R]	+	+	+	–	–	–	–	–	–	–	–	–	–	–
